From ChEMBL document CHEMBL6121007, “Design, synthesis and evaluation of pyrimidine derivatives as sedative-hypnotic agents” (Eur J Med Chem, 2025)
Activity calls are given as the source filed them. No cut-off for these calls is given here.

Legend:
Mus musculus [1] = assay: Sedative-hypnotic activity in mouse assessed as reduction in grip strength score at 50 mg/kg, ip administrated as single dose and measured after 30 mins by grip strength test; type: functional, organism-based
Mus musculus [2] = assay: Sedative-hypnotic activity in mouse assessed as decrease in number of square crossing at 2.5 mg/kg, ip administrated as single dose and measured within 3 mins by open field test; type: functional, organism-based
Mus musculus [3] = assay: Sedative-hypnotic activity in mouse assessed as decrease in grip strength score at 0.1 to 2.5 mg/kg, ip administrated as single dose and measured after 30 mins by grip strength test; type: functional, organism-based; conditions: dose 0.1-2.5 mg/kg
Mus musculus [4] = assay: Sedative-hypnotic activity in pentobarbital-induced mouse assessed as increase in sleep duration at 2.5 mg/kg, ip administrated as single dose; type: functional, organism-based
Mus musculus [5] = assay: In vivo activation of cAMP/PKA/CREB signaling pathway in mouse assessed as increase in CREB phosphorylation in hypothalamus at 2.5 mg/kg, ip measured after 30 mins by Western blot analysis; type: functional, organism-based
[6] = Half life in male Sprague-Dawley rat at 0.5 mg/kg, iv measured after 2 to 720 mins by LC-MS/MS analysis; type: ADME, organism-based; conditions: in vivo, time 2-720 min
[7] = Half life in male Sprague-Dawley rat at 2.5 mg/kg, ip measured after 5 to 1440 mins by LC-MS/MS analysis; type: ADME, organism-based; conditions: in vivo, time 5-1440 min
[8] = Tmax in male Sprague-Dawley rat at 0.5 mg/kg, iv measured after 2 to 720 mins by LC-MS/MS analysis; type: ADME, organism-based; conditions: in vivo, time 2-720 min
[9] = Cmax in male Sprague-Dawley rat at 0.5 mg/kg, iv measured after 2 to 720 mins by LC-MS/MS analysis; type: ADME, organism-based; conditions: in vivo, time 2-720 min
[10] = AUC (0 to t) in male Sprague-Dawley rat at 0.5 mg/kg, iv measured after 2 to 720 mins by LC-MS/MS analysis; type: ADME, organism-based; conditions: in vivo, time 2-720 min
[11] = AUC (0 to t) in male Sprague-Dawley rat at 2.5 mg/kg, ip measured after 5 to 1440 mins by LC-MS/MS analysis; type: ADME, organism-based; conditions: in vivo, time 5-1440 min
[12] = AUC (0 to infinity) in male Sprague-Dawley rat at 0.5 mg/kg, iv measured after 2 to 720 mins by LC-MS/MS analysis; type: ADME, organism-based; conditions: in vivo, time 2-720 min
[13] = AUC (0 to infinity) in male Sprague-Dawley rat at 2.5 mg/kg, ip measured after 5 to 1440 mins by LC-MS/MS analysis; type: ADME, organism-based; conditions: in vivo, time 5-1440 min
[14] = Clearance in male Sprague-Dawley rat at 0.5 mg/kg, iv measured after 2 to 720 mins by LC-MS/MS analysis; type: ADME, organism-based; conditions: in vivo, time 2-720 min
[15] = Clearance in male Sprague-Dawley rat at 2.5 mg/kg, ip measured after 5 to 1440 mins by LC-MS/MS analysis; type: ADME, organism-based; conditions: in vivo, time 5-1440 min
[16] = Apparent volume of distribution in male Sprague-Dawley rat at 2.5 mg/kg, ip measured after 5 to 1440 mins by LC-MS/MS analysis; type: ADME, organism-based; conditions: in vivo, time 5-1440 min
[17] = Bioavailability in male Sprague-Dawley rat at 2.5 mg/kg, ip measured after 5 to 1440 mins by LC-MS/MS analysis; type: ADME, organism-based; conditions: in vivo, time 5-1440 min
[18] = Drug concentration in male mouse plasma at 10 mg/kg, ip measured after 4 hrs by LC-MS/MS analysis; type: ADME, organism-based
[19] = Drug concentration in male mouse brain at 10 mg/kg, ip measured after 1 hrs by LC-MS/MS analysis; type: ADME, organism-based; conditions: read-out: Ct
[20] = Drug concentration in male mouse brain at 10 mg/kg, ip measured after 2 hrs by LC-MS/MS analysis; type: ADME, organism-based; conditions: read-out: Ct
[21] = Ratio of drug concentration in male mouse brain to plasma at 10 mg/kg, ip measured after 1 hrs by LC-MS/MS analysis; type: ADME, organism-based; conditions: brain and plasma, read-out: BPR
[22] = Ratio of drug concentration in male mouse brain to plasma at 10 mg/kg, ip measured after 2 hrs by LC-MS/MS analysis; type: ADME, organism-based; conditions: brain and plasma, read-out: BPR
[23] = Ratio of drug concentration in male mouse brain to plasma at 10 mg/kg, ip measured after 4 hrs by LC-MS/MS analysis; type: ADME, organism-based; conditions: brain and plasma, read-out: BPR
[24] = Upregulation of cAMP signaling pathway related genes in hypothalamus of mouse at 2.5 mg/kg, ip measured after 30 mins by KEGG enrichment analysis relative to control; type: functional; conditions: 0.5 h
Mus musculus [25] = assay: Upregulation of calcium signaling pathway related genes in hypothalamus of mouse at 2.5 mg/kg, ip measured after 30 mins by KEGG enrichment analysis relative to control; type: functional; conditions: 0.5 h
[26] = Upregulation of Wnt signaling pathway related genes in hypothalamus of mouse at 2.5 mg/kg, ip measured after 30 mins by KEGG enrichment analysis relative to control; type: functional; conditions: 0.5 h
[27] = Upregulation of Rap1 signaling pathway related genes in hypothalamus of mouse at 2.5 mg/kg, ip measured after 30 mins by KEGG enrichment analysis relative to control; type: functional; conditions: 0.5 h
[28] = Upregulation of Ras signaling pathway related genes in hypothalamus of mouse at 2.5 mg/kg, ip measured after 30 mins by KEGG enrichment analysis relative to control; type: functional; conditions: 0.5 h
[29] = Upregulation of cGMP-PKG signaling pathway related genes in hypothalamus of mouse at 2.5 mg/kg, ip measured after 30 mins by KEGG enrichment analysis relative to control; type: functional; conditions: 0.5 h
Mus musculus [30] = assay: Upregulation of ubiquitin mediated proteolysis related genes in hypothalamus of mouse at 2.5 mg/kg, ip measured after 30 mins by KEGG enrichment analysis relative to control; type: functional; conditions: 0.5 h
[31] = Upregulation of proteoglycans in cancer related genes in hypothalamus of mouse at 2.5 mg/kg, ip measured after 30 mins by KEGG enrichment analysis relative to control; type: functional; conditions: 0.5 h
Mus musculus [32] = assay: Upregulation of amphetamine addiction related genes in hypothalamus of mouse at 2.5 mg/kg, ip measured after 30 mins by KEGG enrichment analysis relative to control; type: functional; conditions: 0.5 h
Mus musculus [33] = assay: Upregulation of oxytocin signaling pathway related genes in hypothalamus of mouse at 2.5 mg/kg, ip measured after 30 mins by KEGG enrichment analysis relative to control; type: functional; conditions: 0.5 h
Mus musculus [34] = assay: Upregulation of pancreatic secretion related genes in hypothalamus of mouse at 2.5 mg/kg, ip measured after 30 mins by KEGG enrichment analysis relative to control; type: functional; conditions: 0.5 h
Mus musculus [35] = assay: Upregulation of serotonergic synapse related genes in hypothalamus of mouse at 2.5 mg/kg, ip measured after 30 mins by KEGG enrichment analysis relative to control; type: functional; conditions: 0.5 h
Mus musculus [36] = assay: Upregulation of parathyroid hormone synthesis related genes in hypothalamus of mouse at 2.5 mg/kg, ip measured after 30 mins by KEGG enrichment analysis relative to control; type: functional; conditions: 0.5 h
Mus musculus [37] = assay: Upregulation of parathyroid hormone action related genes in hypothalamus of mouse at 2.5 mg/kg, ip measured after 30 mins by KEGG enrichment analysis relative to control; type: functional; conditions: 0.5 h
Mus musculus [38] = assay: Upregulation of serine metabolism related genes in hypothalamus of mouse at 2.5 mg/kg, ip measured after 30 mins by KEGG enrichment analysis relative to control; type: functional; conditions: 0.5 h
[39] = Upregulation of kaposi sarcoma-associated herpesvirus infection related genes in hypothalamus of mouse at 2.5 mg/kg, ip measured after 30 mins by KEGG enrichment analysis relative to control; type: functional; conditions: 0.5 h

For `CCn1c2ccccc2c2cc(Nc3ccnc(Nc4ccc(C)c(OC)c4)n3)ccc21`, the Activity (Mus musculus [1]) was “Active”, the Activity (Mus musculus [2]) was “Active” and the Activity (Mus musculus [3]) was “Active”. For the same compound, the Activity (Mus musculus [4]) was “Active”, the Activity (Mus musculus [5]) was “Active” and the half-life [6] was 3.54 h. It also gave a half-life [7] of 4.56 h, a Tmax [8] of 1.8 min and a Cmax [9] of 893 ng/mL. It also gave an AUC(0-t) [10] of 801 ng·h/mL, an AUC(0-t) [11] of 3180 ng·h/mL and an AUC(0-inf) [12] of 885 ng·h/mL. The AUC(0-inf) [13] was 3300 ng·h/mL, the clearance [14] was 9.53 mL/min/kg and the CL/F [15] was 12.7 mL/min/kg. For the same compound, the “Vd(app)” value [16] was 5.023 L/kg, the bioavailability [17] was 74.5% and the concentration at 4 h [18] was 64.7 ng/mL. It also gave a concentration at 1 h [19] of 15 ng/mL, a concentration at 2 h [20] of 23 ng/mL and a Kp at 1 h [21] of 0.2. It also gave a Kp at 2 h [22] of 0.38, a Kp at 4 h [23] of 0.31 and an Activity [24] of 4.62%. It also gave an Activity (Mus musculus [25]) of 4.62%, an Activity [26] of 4.05% and an Activity [27] of 3.47%. The Activity [28] was 3.47%, the Activity [29] was 2.89% and the Activity (Mus musculus [30]) was 1.73%. For the same compound, the Activity [31] was 5.2%, the Activity (Mus musculus [32]) was 3.47% and the Activity (Mus musculus [33]) was 5.2%. The Activity (Mus musculus [34]) was 4.05%, the Activity (Mus musculus [35]) was 4.05% and the Activity (Mus musculus [36]) was 4.05%. It also gave an Activity (Mus musculus [37]) of 4.05%, an Activity (Mus musculus [38]) of 1.73% and an Activity [39] of 4.62%.
